Test results as given in PMC6199309, “A therapeutic approach to pantothenate kinase associated neurodegeneration” (Nature Communications, 2018).

Key:
Assay in all cases: KINOMEscan
Assay type in all cases: binding
Conditions in all cases: read-out: %Ctrl @ 10000nM
FES = target: T1, FES (Homo sapiens, UniProt P07332)
T1 construct: purchased DiscoverX KINOMEscan

DMPK = target: T2, DMPK (Homo sapiens, UniProt Q09013)
T2 construct: purchased DiscoverX KINOMEscan

ERK3 = target: T3, ERK3 (Homo sapiens, UniProt Q16659)
T3 construct: purchased DiscoverX KINOMEscan

MERTK = target: T4, MERTK (Homo sapiens, UniProt Q12866)
T4 construct: purchased DiscoverX KINOMEscan

TRKA = target: T5, TRKA (Homo sapiens, UniProt P04629)
T5 construct: purchased DiscoverX KINOMEscan

CDKL2 = target: T6, CDKL2 (Homo sapiens, UniProt Q92772)
T6 construct: purchased DiscoverX KINOMEscan

TYRO3 = target: T7, TYRO3 (Homo sapiens, UniProt Q06418)
T7 construct: DNA label for qPCR (T7 phage fusion or DNA tag); purchased DiscoverX scanMAX; host or cells: E. coli BL21-derived (T7 phage) or HEK-293

[1] = target: T8, RSK1(Kin.Dom.1-N-terminal) (Homo sapiens, UniProt Q15418)
T8 construct: RSK1(Kin.Dom.1-N-terminal); purchased DiscoverX KINOMEscan

KIT(A829P) = target: T9, KIT(A829P) (Homo sapiens, UniProt P10721, A829P)
T9 construct: purchased DiscoverX KINOMEscan

ARK5 = target: T10, ARK5 (Homo sapiens, UniProt O60285)
T10 construct: purchased DiscoverX KINOMEscan

TSSK1B = target: T11, TSSK1B (Homo sapiens, UniProt Q9BXA7)
T11 construct: DNA label for qPCR (T7 phage fusion or DNA tag); purchased DiscoverX scanMAX; host or cells: E. coli BL21-derived (T7 phage) or HEK-293

DAPK2 = target: T12, DAPK2 (Homo sapiens, UniProt Q9UIK4)
T12 construct: purchased DiscoverX KINOMEscan

PKAC-beta = target: T13, PKAC-beta (Homo sapiens, UniProt P22694)
T13 construct: purchased DiscoverX KINOMEscan

PIK3CA(Q546K) = target: T14, PIK3CA(Q546K) (Homo sapiens, UniProt P42336, Q546K)
T14 construct: purchased DiscoverX KINOMEscan

MELK = target: T15, MELK (Homo sapiens, UniProt Q14680)
T15 construct: purchased DiscoverX KINOMEscan

LRRK2 = target: T16, LRRK2 (Homo sapiens, UniProt Q5S007)
T16 construct: purchased DiscoverX KINOMEscan

KIT-autoinhibited = target: T17, KIT-autoinhibited (Homo sapiens, UniProt P10721)
T17 construct: purchased DiscoverX KINOMEscan

ERK8 = target: T18, ERK8 (Homo sapiens, UniProt Q8TD08)
T18 construct: purchased DiscoverX KINOMEscan

YANK1 = target: T19, YANK1 (Homo sapiens, UniProt Q8WU08)
T19 construct: DNA label for qPCR (T7 phage fusion or DNA tag); purchased DiscoverX scanMAX; host or cells: E. coli BL21-derived (T7 phage) or HEK-293

PYK2 = target: T20, PYK2 (Homo sapiens, UniProt Q14289)
T20 construct: purchased DiscoverX KINOMEscan

ROS1 = target: T21, ROS1 (Homo sapiens, UniProt P08922)
T21 construct: purchased DiscoverX KINOMEscan

MET(Y1235D) = target: T22, MET(Y1235D) (Homo sapiens, UniProt P08581, Y1235D)
T22 construct: purchased DiscoverX KINOMEscan

CAMKK1 = target: T23, CAMKK1 (Homo sapiens, UniProt Q8N5S9)
T23 construct: purchased DiscoverX KINOMEscan

SgK110 = target: T24, SgK110 (Homo sapiens, UniProt P0C264)
T24 construct: purchased DiscoverX KINOMEscan

TESK1 = target: T25, TESK1 (Homo sapiens, UniProt Q15569)
T25 construct: purchased DiscoverX KINOMEscan

CDC2L5 = target: T26, CDC2L5 (Homo sapiens, UniProt Q14004)
T26 construct: purchased DiscoverX KINOMEscan

CHEK2 = target: T27, CHEK2 (Homo sapiens, UniProt O96017)
T27 construct: purchased DiscoverX KINOMEscan

PKN2 = target: T28, PKN2 (Homo sapiens, UniProt Q16513)
T28 construct: purchased DiscoverX KINOMEscan

RIPK2 = target: T29, RIPK2 (Homo sapiens, UniProt O43353)
T29 construct: purchased DiscoverX KINOMEscan

GRK7 = target: T30, GRK7 (Homo sapiens, UniProt Q8WTQ7)
T30 construct: purchased DiscoverX KINOMEscan

[2] = target: T31, RSK3(Kin.Dom.2-C-terminal) (Homo sapiens, UniProt Q15349)
T31 construct: RSK3(Kin.Dom.2-C-terminal); purchased DiscoverX KINOMEscan

CSNK1G2 = target: T32, CSNK1G2 (Homo sapiens, UniProt P78368)
T32 construct: purchased DiscoverX KINOMEscan

EGFR(L861Q) = target: T33, EGFR(L861Q) (Homo sapiens, UniProt P00533, L861Q)
T33 construct: purchased DiscoverX KINOMEscan

PRKX = target: T34, PRKX (Homo sapiens, UniProt P51817)
T34 construct: purchased DiscoverX KINOMEscan

[3] = target: T35, RSK4(Kin.Dom.2-C-terminal) (Homo sapiens, UniProt Q9UK32)
T35 construct: RSK4(Kin.Dom.2-C-terminal); purchased DiscoverX KINOMEscan

EPHA8 = target: T36, EPHA8 (Homo sapiens, UniProt P29322)
T36 construct: purchased DiscoverX KINOMEscan

PKNB(M.tuberculosis) = target: T37, PKNB(M.tuberculosis) (Mycobacterium tuberculosis, UniProt P9WI81)
T37 construct: purchased DiscoverX KINOMEscan

BUB1 = target: T38, BUB1 (Homo sapiens, UniProt O43683)
T38 construct: purchased DiscoverX KINOMEscan

GRK1 = target: T39, GRK1 (Homo sapiens, UniProt Q15835)
T39 construct: purchased DiscoverX KINOMEscan

CSNK1G1 = target: T40, CSNK1G1 (Homo sapiens, UniProt Q9HCP0)
T40 construct: purchased DiscoverX KINOMEscan

PRKG2 = target: T41, PRKG2 (Homo sapiens, UniProt Q13237)
T41 construct: purchased DiscoverX KINOMEscan
T41 sequence (Q13237 whole entry): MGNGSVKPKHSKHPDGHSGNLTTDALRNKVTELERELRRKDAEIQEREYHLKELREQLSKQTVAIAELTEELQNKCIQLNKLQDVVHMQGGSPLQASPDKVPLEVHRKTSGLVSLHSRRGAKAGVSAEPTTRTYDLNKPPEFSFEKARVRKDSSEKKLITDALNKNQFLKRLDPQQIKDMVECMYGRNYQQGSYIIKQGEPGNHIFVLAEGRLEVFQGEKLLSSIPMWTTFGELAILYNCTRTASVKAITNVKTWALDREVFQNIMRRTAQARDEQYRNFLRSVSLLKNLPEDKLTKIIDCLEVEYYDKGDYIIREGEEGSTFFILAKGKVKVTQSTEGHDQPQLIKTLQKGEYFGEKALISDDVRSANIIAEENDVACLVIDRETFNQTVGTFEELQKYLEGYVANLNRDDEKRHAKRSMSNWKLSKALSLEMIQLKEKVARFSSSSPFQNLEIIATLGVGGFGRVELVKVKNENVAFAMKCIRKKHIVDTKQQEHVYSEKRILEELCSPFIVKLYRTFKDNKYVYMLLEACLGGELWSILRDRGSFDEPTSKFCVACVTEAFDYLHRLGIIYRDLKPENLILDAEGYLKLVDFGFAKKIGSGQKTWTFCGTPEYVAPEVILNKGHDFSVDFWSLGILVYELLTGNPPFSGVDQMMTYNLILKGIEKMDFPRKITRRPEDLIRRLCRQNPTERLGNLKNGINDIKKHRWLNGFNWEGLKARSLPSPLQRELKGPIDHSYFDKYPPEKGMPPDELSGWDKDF

T33 sequence (P00533 25-1210 L861Q): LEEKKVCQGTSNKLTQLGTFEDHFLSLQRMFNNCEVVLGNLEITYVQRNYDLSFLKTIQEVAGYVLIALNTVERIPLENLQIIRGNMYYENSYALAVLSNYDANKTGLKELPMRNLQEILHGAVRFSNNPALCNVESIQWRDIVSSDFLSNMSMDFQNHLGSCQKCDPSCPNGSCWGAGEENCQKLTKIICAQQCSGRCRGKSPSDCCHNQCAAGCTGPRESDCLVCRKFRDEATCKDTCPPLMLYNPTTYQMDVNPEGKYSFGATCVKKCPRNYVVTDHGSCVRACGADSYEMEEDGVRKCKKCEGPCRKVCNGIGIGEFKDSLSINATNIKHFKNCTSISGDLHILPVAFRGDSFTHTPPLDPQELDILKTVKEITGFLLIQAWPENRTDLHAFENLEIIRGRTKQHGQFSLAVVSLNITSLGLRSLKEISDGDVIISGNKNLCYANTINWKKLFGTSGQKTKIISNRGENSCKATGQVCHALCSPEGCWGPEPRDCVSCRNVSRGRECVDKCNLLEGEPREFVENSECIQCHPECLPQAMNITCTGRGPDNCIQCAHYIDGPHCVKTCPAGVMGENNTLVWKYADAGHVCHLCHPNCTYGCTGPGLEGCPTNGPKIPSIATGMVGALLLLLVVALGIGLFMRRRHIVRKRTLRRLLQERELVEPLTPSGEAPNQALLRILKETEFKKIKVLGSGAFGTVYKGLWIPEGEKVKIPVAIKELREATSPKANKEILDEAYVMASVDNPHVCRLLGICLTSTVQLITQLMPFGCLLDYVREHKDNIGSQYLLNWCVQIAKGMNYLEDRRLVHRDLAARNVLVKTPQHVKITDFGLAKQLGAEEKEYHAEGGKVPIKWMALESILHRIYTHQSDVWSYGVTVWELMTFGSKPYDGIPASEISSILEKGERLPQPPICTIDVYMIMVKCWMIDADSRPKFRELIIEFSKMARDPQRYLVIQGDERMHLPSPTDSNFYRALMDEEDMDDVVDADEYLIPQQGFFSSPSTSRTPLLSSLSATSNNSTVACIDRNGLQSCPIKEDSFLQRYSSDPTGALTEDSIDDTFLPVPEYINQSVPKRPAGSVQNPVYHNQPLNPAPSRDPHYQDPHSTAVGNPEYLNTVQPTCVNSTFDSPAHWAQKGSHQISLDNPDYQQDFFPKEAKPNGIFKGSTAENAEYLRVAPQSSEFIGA
T31 sequence (Q15349 389-733 limits assumed): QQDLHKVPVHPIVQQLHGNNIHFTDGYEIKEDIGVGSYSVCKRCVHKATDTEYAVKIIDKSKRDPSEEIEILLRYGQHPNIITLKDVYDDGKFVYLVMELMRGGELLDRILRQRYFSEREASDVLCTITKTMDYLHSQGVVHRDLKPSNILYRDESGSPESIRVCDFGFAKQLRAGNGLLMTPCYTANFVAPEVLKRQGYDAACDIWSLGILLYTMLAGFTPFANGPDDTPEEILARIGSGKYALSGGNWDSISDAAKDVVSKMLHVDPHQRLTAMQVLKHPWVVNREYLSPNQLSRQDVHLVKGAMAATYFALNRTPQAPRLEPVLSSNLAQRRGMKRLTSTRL
T4 sequence (Q12866 21-999): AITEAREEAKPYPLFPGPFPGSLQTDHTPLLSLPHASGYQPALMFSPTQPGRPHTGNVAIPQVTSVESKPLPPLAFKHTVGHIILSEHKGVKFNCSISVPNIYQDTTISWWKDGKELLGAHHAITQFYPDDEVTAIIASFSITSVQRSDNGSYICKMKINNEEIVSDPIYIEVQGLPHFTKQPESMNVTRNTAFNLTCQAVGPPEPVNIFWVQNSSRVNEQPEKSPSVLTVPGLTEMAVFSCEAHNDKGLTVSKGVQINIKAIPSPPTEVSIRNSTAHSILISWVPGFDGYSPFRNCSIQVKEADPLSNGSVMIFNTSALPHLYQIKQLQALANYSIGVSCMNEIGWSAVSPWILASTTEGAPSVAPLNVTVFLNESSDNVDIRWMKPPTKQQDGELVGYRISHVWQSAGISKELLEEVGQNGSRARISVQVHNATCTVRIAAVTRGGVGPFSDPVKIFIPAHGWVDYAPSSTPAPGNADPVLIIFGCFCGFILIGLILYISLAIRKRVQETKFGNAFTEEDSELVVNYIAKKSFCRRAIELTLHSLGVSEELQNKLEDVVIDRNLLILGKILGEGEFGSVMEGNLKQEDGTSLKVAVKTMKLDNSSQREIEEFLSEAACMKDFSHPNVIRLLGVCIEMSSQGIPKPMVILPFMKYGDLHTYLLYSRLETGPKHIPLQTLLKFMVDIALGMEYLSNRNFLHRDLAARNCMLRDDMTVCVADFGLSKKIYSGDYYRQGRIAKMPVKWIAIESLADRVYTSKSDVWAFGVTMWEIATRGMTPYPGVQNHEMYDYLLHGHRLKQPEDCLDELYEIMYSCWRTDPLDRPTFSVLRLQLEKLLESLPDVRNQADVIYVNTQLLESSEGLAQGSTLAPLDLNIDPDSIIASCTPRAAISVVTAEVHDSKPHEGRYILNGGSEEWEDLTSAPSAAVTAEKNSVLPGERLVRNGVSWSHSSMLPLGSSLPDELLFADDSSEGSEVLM
T7 sequence (Q06418 41-890): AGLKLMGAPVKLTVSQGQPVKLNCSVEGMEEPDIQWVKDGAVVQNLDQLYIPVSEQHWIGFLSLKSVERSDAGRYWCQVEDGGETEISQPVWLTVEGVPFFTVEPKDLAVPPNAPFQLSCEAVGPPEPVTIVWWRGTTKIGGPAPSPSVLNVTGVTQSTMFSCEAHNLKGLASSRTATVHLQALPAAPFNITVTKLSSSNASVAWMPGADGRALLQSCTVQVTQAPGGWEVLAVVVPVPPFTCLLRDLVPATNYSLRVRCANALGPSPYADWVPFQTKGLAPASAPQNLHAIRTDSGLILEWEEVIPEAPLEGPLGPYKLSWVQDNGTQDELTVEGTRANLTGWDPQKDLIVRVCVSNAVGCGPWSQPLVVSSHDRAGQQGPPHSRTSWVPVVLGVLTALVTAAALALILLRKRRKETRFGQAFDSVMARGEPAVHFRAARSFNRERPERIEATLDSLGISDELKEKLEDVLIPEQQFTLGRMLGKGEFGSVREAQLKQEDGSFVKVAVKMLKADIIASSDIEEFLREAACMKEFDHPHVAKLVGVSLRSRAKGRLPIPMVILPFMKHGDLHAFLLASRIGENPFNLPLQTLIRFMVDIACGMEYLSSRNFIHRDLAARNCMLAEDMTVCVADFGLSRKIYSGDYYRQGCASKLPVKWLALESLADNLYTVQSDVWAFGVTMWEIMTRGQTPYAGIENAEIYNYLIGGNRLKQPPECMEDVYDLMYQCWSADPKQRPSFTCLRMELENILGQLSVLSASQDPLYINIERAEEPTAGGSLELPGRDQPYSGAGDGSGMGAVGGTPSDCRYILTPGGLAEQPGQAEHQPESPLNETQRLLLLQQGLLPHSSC
T17 sequence (P10721 26-976): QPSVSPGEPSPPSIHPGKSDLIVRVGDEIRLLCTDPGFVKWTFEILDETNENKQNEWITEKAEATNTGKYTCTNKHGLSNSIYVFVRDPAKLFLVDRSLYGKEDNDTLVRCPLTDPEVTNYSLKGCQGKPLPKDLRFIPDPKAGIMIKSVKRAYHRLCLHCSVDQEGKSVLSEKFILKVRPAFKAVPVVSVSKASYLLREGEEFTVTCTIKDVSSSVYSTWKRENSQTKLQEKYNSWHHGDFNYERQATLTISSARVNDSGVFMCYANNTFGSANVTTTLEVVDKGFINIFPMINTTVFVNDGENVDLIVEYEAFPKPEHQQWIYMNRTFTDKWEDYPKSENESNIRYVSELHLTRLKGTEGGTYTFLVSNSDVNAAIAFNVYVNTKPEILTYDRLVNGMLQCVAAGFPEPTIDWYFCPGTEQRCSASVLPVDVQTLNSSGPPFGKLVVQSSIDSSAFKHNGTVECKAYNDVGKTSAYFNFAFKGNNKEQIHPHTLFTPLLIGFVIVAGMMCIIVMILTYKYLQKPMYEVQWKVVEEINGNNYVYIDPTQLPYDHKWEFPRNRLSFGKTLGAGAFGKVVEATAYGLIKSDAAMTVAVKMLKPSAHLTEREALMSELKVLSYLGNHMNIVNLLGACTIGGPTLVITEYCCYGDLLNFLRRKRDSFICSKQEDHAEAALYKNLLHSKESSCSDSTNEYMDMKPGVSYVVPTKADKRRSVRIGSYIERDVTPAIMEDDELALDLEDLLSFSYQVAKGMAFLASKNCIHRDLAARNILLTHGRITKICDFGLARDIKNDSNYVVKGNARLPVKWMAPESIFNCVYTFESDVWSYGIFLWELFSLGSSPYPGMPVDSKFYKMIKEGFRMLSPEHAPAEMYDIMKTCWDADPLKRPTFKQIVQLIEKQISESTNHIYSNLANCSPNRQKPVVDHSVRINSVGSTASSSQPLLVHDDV

With `CC(C)c1ccc(CC(=O)N2CCN(c3ccc(C#N)nn3)CC2)cc1` [PZ-2891, 6-(4-(2-(4-isopropylphenyl)acetyl)piperazin-1-yl)pyridazine-3-carbonitrile] the remaining binding at 10 µM (FES) was 94%, the remaining binding at 10 µM (DMPK) was 89% and the remaining binding at 10 µM (ERK3) was 97%. For the same compound, the remaining binding at 10 µM (MERTK) was 95%, the remaining binding at 10 µM (TRKA) was 100% and the remaining binding at 10 µM (CDKL2) was 90%. The remaining binding at 10 µM (TYRO3) was 100%, the remaining binding at 10 µM [1] was 100% and the remaining binding at 10 µM (KIT(A829P)) was 91%. It also gave a remaining binding at 10 µM (ARK5) of 94%, a remaining binding at 10 µM (TSSK1B) of 99% and a remaining binding at 10 µM (DAPK2) of 95%. It also gave a remaining binding at 10 µM (PKAC-beta) of 95%, a remaining binding at 10 µM (PIK3CA(Q546K)) of 70% and a remaining binding at 10 µM (MELK) of 75%. For the same compound, the remaining binding at 10 µM (LRRK2) was 100%, the remaining binding at 10 µM (KIT-autoinhibited) was 81% and the remaining binding at 10 µM (ERK8) was 81%. The remaining binding at 10 µM (YANK1) was 74%, the remaining binding at 10 µM (PYK2) was 90% and the remaining binding at 10 µM (ROS1) was 81%. For the same compound, the remaining binding at 10 µM (MET(Y1235D)) was 66%, the remaining binding at 10 µM (CAMKK1) was 89% and the remaining binding at 10 µM (SgK110) was 94%. The remaining binding at 10 µM (TESK1) was 86%, the remaining binding at 10 µM (CDC2L5) was 81% and the remaining binding at 10 µM (CHEK2) was 79%. For the same compound, the remaining binding at 10 µM (PKN2) was 94%, the remaining binding at 10 µM (RIPK2) was 89% and the remaining binding at 10 µM (GRK7) was 93%. The remaining binding at 10 µM [2] was 66%, the remaining binding at 10 µM (CSNK1G2) was 62% and the remaining binding at 10 µM (EGFR(L861Q)) was 100%. It also gave a remaining binding at 10 µM (PRKX) of 70%, a remaining binding at 10 µM [3] of 71% and a remaining binding at 10 µM (EPHA8) of 95%. The remaining binding at 10 µM (PKNB(M.tuberculosis)) was 74%, the remaining binding at 10 µM (BUB1) was 100% and the remaining binding at 10 µM (GRK1) was 72%. The remaining binding at 10 µM (CSNK1G1) was 92% and the remaining binding at 10 µM (PRKG2) was 76%.
